The target of assay [1] is T1, E1 and His-E2 Ubch10 (UBC10) (Homo sapiens, UniProt P22314).
T1 construct: host or cells: E. coli (His-Ubch10); Sf9 insect cells (E1)
T1 sequence (P22314 1-1058): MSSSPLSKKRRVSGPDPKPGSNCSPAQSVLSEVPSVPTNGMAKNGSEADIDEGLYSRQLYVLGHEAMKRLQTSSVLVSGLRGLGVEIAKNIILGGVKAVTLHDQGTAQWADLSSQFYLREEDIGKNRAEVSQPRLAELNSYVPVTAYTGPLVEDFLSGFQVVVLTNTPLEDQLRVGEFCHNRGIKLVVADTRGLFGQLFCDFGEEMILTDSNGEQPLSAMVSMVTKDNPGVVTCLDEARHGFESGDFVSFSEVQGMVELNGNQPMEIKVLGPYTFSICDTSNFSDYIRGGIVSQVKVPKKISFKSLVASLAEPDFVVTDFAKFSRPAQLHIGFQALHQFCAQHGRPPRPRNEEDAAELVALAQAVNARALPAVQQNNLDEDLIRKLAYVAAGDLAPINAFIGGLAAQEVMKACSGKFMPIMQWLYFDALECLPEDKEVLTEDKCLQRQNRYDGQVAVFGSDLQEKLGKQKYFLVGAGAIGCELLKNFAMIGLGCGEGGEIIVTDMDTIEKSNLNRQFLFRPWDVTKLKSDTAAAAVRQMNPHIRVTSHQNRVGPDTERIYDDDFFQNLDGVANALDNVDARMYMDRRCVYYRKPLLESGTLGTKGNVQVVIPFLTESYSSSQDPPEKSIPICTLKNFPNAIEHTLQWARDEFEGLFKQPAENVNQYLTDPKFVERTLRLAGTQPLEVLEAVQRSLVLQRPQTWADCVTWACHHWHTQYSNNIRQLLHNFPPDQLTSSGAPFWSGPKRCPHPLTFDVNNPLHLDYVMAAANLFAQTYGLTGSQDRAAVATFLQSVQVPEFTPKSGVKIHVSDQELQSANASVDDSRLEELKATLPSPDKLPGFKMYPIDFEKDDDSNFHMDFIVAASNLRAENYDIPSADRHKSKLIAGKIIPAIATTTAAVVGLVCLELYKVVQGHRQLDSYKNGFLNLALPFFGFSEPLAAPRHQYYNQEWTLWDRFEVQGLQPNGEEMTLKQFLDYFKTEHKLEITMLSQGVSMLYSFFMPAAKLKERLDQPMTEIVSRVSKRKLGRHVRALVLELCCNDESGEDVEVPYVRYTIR
The assay is described as follows: ATP competitive assay, 200 μM ATP (high ATP). The assay is classed as biochemical. To be noted: conclusion from UBC10 inhibition at 1 μM versus 200 μM ATP. The protocol: The attachment of a ubiquitin moiety to the E2 conjugating agent was assayed using Flag-ubiquitin that was purified from E. coli, E2 Ubch10 that was purified as a His-Ubch10 from E. coli, and E1 that was purified from Sf9 insect cells (Affiniti Research Products, Exeter, U.K.). The wells of a Nickel-substrate 96-well plate (Pierce Chemical) were blocked with 100 μl of 1% casein/phosphate buffered saline (PBS) for 1 hour at room temperature. The blocked Nickel-substrate plate was then washed three times with 200 μl of PBST (0.1% Tween-20 in PBS). […] The final reaction solution volume was fixed to 80 μl with Millipore-filtered water. To this was added the following: a ubiquitin agent inhibitor in 10 μl of DMSO, 10 μl of E1 and His-E2 Ubch10 in 20 mM Tris buffer, pH 7.5, and 5% glycerol so that there was 10 ng/well of E1 and 20 ng/well of His-E2 Ubch10. […]
After 1 hour, the wells were washed three times with 200 μl of PBST and the amount of E2-ubiquitin complex was measured. […] The luminescence of each well was then measured using a […] to calculate the amount of E2-ubiquitin complex. […]
The table below illustrates the ATP competitive inhibition properties of the pharmaceutical compositions of the invention comprising the compounds listed in the table using the ATP competitive assay described above. Inhibition was measured using IC50 values.

A further assay concerns the target T2, E1 and His-E2 Ubch10 (Homo sapiens, UniProt P22314).
T2 construct: host or cells: E. coli (His-Ubch10); Sf9 insect cells (E1)
T2 sequence (P22314 1-1058): T1 sequence (P22314 1-1058)
Put plainly: E1 to E2 transfer assay, His-E2 Ubch10, 1.0 μM ATP (low ATP). Format: biochemical. To be noted: Table 5, ATP inhibition properties; inhibition measured using IC50 values. In outline:
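His-Ubch10 (20 ng/well), E1 (10 ng/well) and Flag-ubiquitin (100 ng) reacted 1 h at room temperature on nickel plates in 62.5 mM Tris pH 7.5, 0.75 mM DTT, 1.0 μM ATP with inhibitor. E2-ubiquitin complex detected by anti-Flag/HRP luminescence; IC50 determined.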

Turning to `COc1ccc2nc(NC(=O)c3ccc(C)cc3)sc2c1` [Compound 3, N-(6-methoxy-1,3-benzothiazoi-2-yl)-4-methylbenzamide], the Results result in assay [1] was “ATP competitve”.

As to `COc1ccc2sc(NC(=O)c3ccc4c(c3)OCCO4)nc2c1` [Compound 14, N-(5-methoxy-1,3-benzothiazol-2-yl)-2,3-dihydro-1,4-benzodioxine-6-carboxamide], in assay [1], the Results result is given as “ATP competitve”.

Take `O=C(Nc1nc2ccccc2s1)c1ccc([N+](=O)[O-])o1` [Compound 156, N-(benzo[d]thiazol-2-yl)-5-nitrofuran-2-carboxamide]: on E1 and His-E2 Ubch10, the UBC10 entry is listed as “−− (−− indicates marginal or no inhibition detected with this assay)”. Take `O=C(Nc1nc2ccccc2s1)c1ccccc1Br` [Compound 159, N-(benzo[d]thiazol-2-yl)-2-bromobenzamide]: at E1 and His-E2 Ubch10, the UBC10 result was “++ (++ indicates inhibition at 50 μM or or less)”.

Turning to `O=C(Nc1nc2ccccc2s1)c1ccccc1F` [Compound 164, N-(benzo[d]thiazol-2-yl)-2-fluorobenzamide], the UBC10 entry on E1 and His-E2 Ubch10 was “−− (−− indicates marginal or no inhibition detected with this assay)”. Consider `O=C(Nc1nc2ccccc2s1)c1ccccc1` [Compound 168, N-(benzo[d]thiazol-2-yl)benzamide], for which the UBC10 entry at E1 and His-E2 Ubch10 is listed as “−− (−− indicates marginal or no inhibition detected with this assay)”. On to `O=C(Nc1nc2ccccc2s1)c1ccccc1[N+](=O)[O-]` [Compound 169, N-(benzo[d]thiazol-2-yl)-2-nitrobenzamide], for which the UBC10 result on E1 and His-E2 Ubch10 is reported as “−− (−− indicates marginal or no inhibition detected with this assay)”. On the same count and under the same terms, the result for `CCCc1ccc(C(=O)Nc2nc3ccccc3s2)cc1` [Compound 170, N-(benzo[d]thiazol-2-yl)-4-propylbenzamide] reads “−− (−− indicates marginal or no inhibition detected with this assay)”; that for `O=C(Nc1nc2ccccc2s1)c1ccc(Br)cc1` [Compound 172, N-(benzo[d]thiazol-2-yl)-4-bromobenzamide], “−− (−− indicates marginal or no inhibition detected with this assay)”; that for `O=C(Nc1nc2ccccc2s1)c1cccc(F)c1` [Compound 174, N-(benzo[d]thiazol-2-yl)-3-fluorobenzamide], “−− (−− indicates marginal or no inhibition detected with this assay)”.

`CC(C)(C)c1ccc(C(=O)Nc2nc3ccccc3s2)cc1` [Compound 176, N-(benzo[d]thiazol-2-yl)-4-tert-butylbenzamide]: the UBC10 entry on E1 and His-E2 Ubch10 is on record as “−− (−− indicates marginal or no inhibition detected with this assay)”. On the same count and under the same terms, the result for `O=C(O)c1ccc2c(c1)C(=O)N(c1nc3ccccc3s1)C2=O` [Compound 181, 2-(benzo[d]thiazol-2-yl)-1,3-dioxosioindoline-5-carboxylic acid] reads “−− (−− indicates marginal or no inhibition detected with this assay)”. Turning to `O=C(Nc1nc2ccccc2s1)c1cccc(Cl)c1` [Compound 186, N-(benzo[d]thiazol-2-yl)-3-chlorobenzamide], the UBC10 entry on E1 and His-E2 Ubch10 is listed as “−− (−− indicates marginal or no inhibition detected with this assay)”. In the case of `COc1cccc(C(=O)Nc2nc3ccccc3s2)c1` [Compound 189, N-(benzo[d]thiazol-2-yl)-3-methoxybenzamide], the UBC10 result on E1 and His-E2 Ubch10 is on record as “−− (−− indicates marginal or no inhibition detected with this assay)”. Same read-out and setting: in the case of `O=C(Nc1nc2ccccc2s1)c1ccccc1Cl` [Compound 194, N-(benzo[d]thiazol-2-yl)-2-chlorobenzamide] it was “−− (−− indicates marginal or no inhibition detected with this assay)”.

As to `O=C(Nc1nc2ccccc2s1)c1cccc(I)c1` [Compound 195, N-(benzo[d]thiazol-2-yl)-3-iodobenzamide], at E1 and His-E2 Ubch10, the UBC10 result is reported as “++ (++ indicates inhibition at 50 μM or or less)”.

For `O=C(Nc1nc2ccccc2s1)C1CCCCC1` [Compound 205, N-(benzo[d]thiazol-2-yl)cyclohexanecarboxamide], the UBC10 entry on E1 and His-E2 Ubch10 was “−− (−− indicates marginal or no inhibition detected with this assay)”. Still for that read-out and setting: the result for `O=C(Nc1nc2ccccc2s1)c1ccc(Br)o1` [Compound 208, N-(benzo[b]thiazol-2-yl)-5-bromofuran-2-carboxamide] reads “−− (−− indicates marginal or no inhibition detected with this assay)”; that for `CC(C)c1ccc(C(=O)Nc2nc3ccccc3s2)cc1` [Compound 222, N-(benzo[d]thiazol-2-yl)-4-isopropylbenzamide], “−− (−− indicates marginal or no inhibition detected with this assay)”; that for `CN(C)c1ccccc1C(=O)Nc1nc2ccccc2s1` [Compound 223, N-(benzo[d]thiazol-2-yl)-2-(dimethylamino)benzamide], “−− (−− indicates marginal or no inhibition detected with this assay)”. Take `O=C(Nc1nc2ccccc2s1)[C@H]1CCN1` [Compound 224, (R)-N-(benzo[d]thiazol-2-yl)azetidine-2-carboxamide]: the UBC10 result at E1 and His-E2 Ubch10 is “−− (−− indicates marginal or no inhibition detected with this assay)”. For `O=C(Nc1nc2ccccc2s1)C1CCNCC1` [Compound 225, N-(benzo[d]thiazol-2-yl)piperidine-4-carboxamide], on E1 and His-E2 Ubch10, the UBC10 entry was “−− (−− indicates marginal or no inhibition detected with this assay)”.
